In one data set the target is hERG (KV11.1) (Homo sapiens, UniProt Q12809). In words: Automated planar patch-clamp (APC, QPatch II 48), voltage-ladder protocol, CHO cells stably expressing human hERG. The conditions noted are these: for hERG channel Efficacy (max reduction in Gmax) Gmin: 1 = no reduction of Gmax, 0 = complete reduction. The source says:
To assess the effect of a large set of SCRAs on hERG (see SI Table I and SI Fig. S1 for a list of the 36 included SCRAs and corresponding structures), we used the automated planar patch-clamp (APC) technique on mammalian Chinese hamster ovary (CHO) cells stably expressing human hERG. […] We employed a voltage-ladder protocol to obtain information on SCRA effects on the channel’s voltage dependence of activation (V50) and maximal conductance (Gmax) (both determined from Boltzmann fits of the instantaneous tail currents; see Methods for details).
Stably expressing cell lines “CHO-hERG DUO” (here referred to as hERG; gene: KCNH2) and “CHO-KVLQT1/mink” (here referred to as KV7.1/KCNE1; gene: KCNQ1/KCNE1), (B’SYS GmBH, Witterswil, Switzerland) were used to study whole-cell K^+ currents on a QPatch II 48 APC system (Sophion Bioscience A/S, Ballerup, Denmark). Cell culture and passaging were performed in accordance with standard operating procedures. Cells were harvested in serum-free medium with Detachin^TM (Genlantis, CA, USA) immediately prior to experiments. For MPC on transient cell lines, CHO-K1 CCL-61 cells (ATCC, Manassas, VA, USA) were cultured in Ham’s F-12 medium supplemented with 10% fetal bovine serum (FBS) and 100 U/mL penicillin–100 µg/mL streptomycin (Gibco, Thermo Fisher Scientific, Waltham, MA, USA). Transfection was carried out using JetOPTIMUS® reagent (Polyplus, Strasbourg, France) according to the manufacturer’s protocol. Briefly, 80,000 cells were seeded per well in a 12-well plate and transfected with 300 ng of pcDNA3-GFP plasmid, 700 ng of pcDNA3-hERG plasmid with either the wild-type or mutant channels (S624A, S649A, or Y652A), and […] of JetOPTIMUS. After 8 h, cells were detached and reseeded at a density of 30,000 cells per well onto several poly-D-lysine-coated glass coverslips placed in a 12-well plate. For the CB1 receptor activity assay, the AequoScreen® recombinant Chinese hamster ovary (CHO) K1 cell line, stably expressing the human CB1 receptor (ES-110-A), was used (Revvity, Sollentuna, Sweden).
Automated patch-clamp recordings were performed at 22 °C. Freshly harvested cell suspensions (2–3 million cells/mL) were prepared for experiments by the QPatch II 48 automated cell preparation unit. Cells were centrifuged for 150 s at 150 × g and washed twice with the extracellular recording solution. Cells were handled by the integrated pipetting robot and added to the 48 experiment sites on the planar patch-clamp consumable QPlate. Each experiment site contained an individual pair of recording electrodes and a silicon/glass biochip embedded in the flow channels. Single-cell patch recordings (n = 1 is defined as one single-cell patch) and population patch recordings (up to 10 cells per well, n = 1 is defined as one population patch) were performed for hERG and for KV7.1/KCNE1, respectively. Cells were applied, positioned and sealed to the patch holes by a mild suction protocol; whole-cell access was then achieved by a stronger suction pulse.
The intracellular solution contained (in mM): 100 KCl, 4.3 CaCl2, 1.4 MgCl2, 25/10 KOH/EGTA, 24 KF, 10 HEPES, and 4 Mg-ATP (hERG) or 4 Na-ATP (KV7.1/KCNE1). […] The compounds were pre-diluted in DMSO, and the final concentration of DMSO (0.3%) was equal in all recording solutions to control for vehicle effects. The compounds made no contact with plastics following dilution in extracellular solution.
An overview of experimental conditions is provided in SI Table VII, Square voltage pulses in a voltage ladder protocol were used to study current/voltage (I(V)) relationships. Each voltage protocol was first run three times in the presence of vehicle (extracellular solution supplemented with 0.3% DMSO), the 3rd serving as the baseline. Voltage protocols were repeated in the presence of 4 cumulatively rising concentrations of test compound, followed by application of vehicle for recovery.

For the next data set, the target named is T1, human CB1 receptor (Homo sapiens, UniProt P21554).
T1 construct: host or cells: CHO-K1 stably expressing CB1, apoaequorin and Gα16
T1 sequence (P21554 whole entry): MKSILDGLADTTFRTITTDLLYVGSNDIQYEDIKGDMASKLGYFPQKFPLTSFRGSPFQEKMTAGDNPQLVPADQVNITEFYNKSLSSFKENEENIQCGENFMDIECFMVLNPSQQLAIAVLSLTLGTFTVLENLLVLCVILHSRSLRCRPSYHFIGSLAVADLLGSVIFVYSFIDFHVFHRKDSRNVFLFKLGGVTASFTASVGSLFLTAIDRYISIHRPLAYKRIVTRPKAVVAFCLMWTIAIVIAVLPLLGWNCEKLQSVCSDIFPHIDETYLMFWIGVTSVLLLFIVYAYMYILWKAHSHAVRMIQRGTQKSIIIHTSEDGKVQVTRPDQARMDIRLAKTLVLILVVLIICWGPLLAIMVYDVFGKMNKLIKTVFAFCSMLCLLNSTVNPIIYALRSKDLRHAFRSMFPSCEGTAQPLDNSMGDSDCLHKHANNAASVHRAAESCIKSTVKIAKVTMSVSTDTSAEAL
In words: AequoScreen intracellular calcium release assay, CHO-K1 cells stably expressing CB1. The class given is cell-based.

Another data set concerns the target KV7.1/KCNE1 (Homo sapiens, UniProt P51787). In words: Automated patch-clamp (APC, population patch), CHO cells stably expressing human KV7.1/KCNE1. As to conditions: for KV7.1/KCNE1 channel Efficacy (max reduction in Gmax) Gmin, marked *: * Greatest efficacy achieved with a concentration between 10 and 30 µM (no fit); for KV7.1/KCNE1 channel Efficacy (max reduction in Gmax) Gmin: 1 = no reduction of Gmax, 0 = complete reduction. The class given is cell-based. As for the experimental part:
Both hERG and KV7.1/KCNE1 contribute to cardiomyocyte repolarization (Fig. 1g). Inhibition of KV7.1/KCNE1 alone can be proarrhythmic. Moreover, under conditions with impaired hERG function, upregulation of KV7.1/KCNE1 has been proposed to partially compensate for the loss of hERG [38, 39]. […] To assess if SCRAs also affect KV7.1/KCNE1, we used mammalian CHO cells stably expressing human KV7.1/KCNE1. […] At 10 µM, 7 of the SCRAs caused a significant positive shift in V50 (Fig. 5e), with the largest shift induced by MDMB-[…] (ΔV50 = +10.3 ± 1.6 mV).
Automated patch-clamp recordings were performed at 22 °C.
For the KV7.1/KCNE1 voltage ladder protocol (SI Table VII) the solutions were present for 60 s before recording started. KV7.1/KCNE1 cells were kept at a holding voltage of −90 mV, with brief hyperpolarizing steps to −100 mV for 540 ms (to calculate ohmic leakage). […] The time between compound application and the first voltage protocol was 60 s. Time between sweeps was 15 s. The voltage ladder protocol was executed every 220 s.
For Gmax (rel.), N was set to –1. For ΔV50, N was set to 1.
A general note: The patch-clamp technique gives a direct electrical read-out from membranes.

The mark [1] stands for this setting: read-out: hERG channel Potency IC50 (Gmax reduction), APC, 22 °C, best fit.
The mark [2] stands for this setting: read-out: CB1 receptor Potency EC50.
[3] abbreviates: normalized to maximum of JWH-018, n ≥ 3 (JWH-030 n = 2).
Setting [4] is: normalized to median EC50 of JWH-018, n ≥ 3 (JWH-030 n = 2), read-out: CB1 receptor Potency EC50.
[5] abbreviates: CB1 receptor Potency EC50, normalized to median EC50 of JWH-018, n ≥ 3 (JWH-030 n = 2).
Where [6] appears, read: APC, best fit, read-out: KV7.1/KCNE1 channel Potency IC50 (Gmax reduction).

Values joined by “and” are separate entries in the source; they are usually repeats but may differ in a detail not shown here. Equal values may be shown once. “Also recorded” adds a separate entry of the source. Read-outs that look alike come from different tables or passages of the source.

hERG (KV11.1), sequence (Q12809 whole entry): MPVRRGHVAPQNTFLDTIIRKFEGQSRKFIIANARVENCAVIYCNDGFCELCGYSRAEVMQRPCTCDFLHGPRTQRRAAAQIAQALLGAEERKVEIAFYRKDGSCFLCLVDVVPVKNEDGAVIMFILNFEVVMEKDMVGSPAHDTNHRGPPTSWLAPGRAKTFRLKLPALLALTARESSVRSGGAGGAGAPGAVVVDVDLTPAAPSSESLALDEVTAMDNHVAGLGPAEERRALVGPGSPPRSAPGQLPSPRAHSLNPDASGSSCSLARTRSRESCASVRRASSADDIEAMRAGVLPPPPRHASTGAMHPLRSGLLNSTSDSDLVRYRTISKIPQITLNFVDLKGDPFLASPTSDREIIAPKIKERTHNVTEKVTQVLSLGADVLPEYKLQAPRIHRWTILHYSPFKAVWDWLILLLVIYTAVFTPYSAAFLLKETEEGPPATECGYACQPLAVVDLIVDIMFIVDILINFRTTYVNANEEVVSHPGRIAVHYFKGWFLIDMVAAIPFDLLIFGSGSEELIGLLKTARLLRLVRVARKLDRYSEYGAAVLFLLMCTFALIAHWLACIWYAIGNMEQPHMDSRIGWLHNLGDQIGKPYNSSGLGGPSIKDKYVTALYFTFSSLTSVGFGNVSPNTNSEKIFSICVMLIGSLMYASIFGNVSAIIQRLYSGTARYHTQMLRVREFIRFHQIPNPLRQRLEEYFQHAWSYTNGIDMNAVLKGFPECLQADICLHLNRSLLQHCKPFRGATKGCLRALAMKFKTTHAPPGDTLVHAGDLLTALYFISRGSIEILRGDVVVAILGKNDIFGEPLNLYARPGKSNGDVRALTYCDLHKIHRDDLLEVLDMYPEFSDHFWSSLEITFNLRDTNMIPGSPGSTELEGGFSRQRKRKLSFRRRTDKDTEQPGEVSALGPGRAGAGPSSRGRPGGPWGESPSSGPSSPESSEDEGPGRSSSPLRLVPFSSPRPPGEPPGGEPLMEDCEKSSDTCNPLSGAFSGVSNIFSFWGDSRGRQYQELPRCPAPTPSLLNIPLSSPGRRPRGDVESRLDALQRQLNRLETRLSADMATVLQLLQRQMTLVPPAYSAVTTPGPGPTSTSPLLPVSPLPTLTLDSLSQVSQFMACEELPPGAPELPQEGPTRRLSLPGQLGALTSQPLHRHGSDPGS
KV7.1/KCNE1, sequence (P51787 whole entry): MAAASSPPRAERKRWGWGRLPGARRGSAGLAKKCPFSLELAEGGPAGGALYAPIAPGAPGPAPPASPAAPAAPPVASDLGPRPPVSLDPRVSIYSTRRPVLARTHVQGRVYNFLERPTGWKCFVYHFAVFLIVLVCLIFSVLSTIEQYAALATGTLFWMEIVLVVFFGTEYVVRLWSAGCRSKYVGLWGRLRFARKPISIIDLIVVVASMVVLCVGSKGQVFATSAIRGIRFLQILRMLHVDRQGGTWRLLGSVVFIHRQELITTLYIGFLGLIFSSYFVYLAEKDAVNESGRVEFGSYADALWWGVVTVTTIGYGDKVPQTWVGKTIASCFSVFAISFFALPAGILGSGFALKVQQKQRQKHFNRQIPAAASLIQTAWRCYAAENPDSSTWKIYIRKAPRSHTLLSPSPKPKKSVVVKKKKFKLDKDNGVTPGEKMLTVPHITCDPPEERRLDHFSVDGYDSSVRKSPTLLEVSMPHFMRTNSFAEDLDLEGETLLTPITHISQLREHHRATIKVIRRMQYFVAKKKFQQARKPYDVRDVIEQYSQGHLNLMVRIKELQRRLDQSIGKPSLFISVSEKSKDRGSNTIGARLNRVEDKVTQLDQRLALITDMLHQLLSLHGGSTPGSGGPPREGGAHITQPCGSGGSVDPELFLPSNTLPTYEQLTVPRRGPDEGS

Usually EC50 stands for the concentration needed to bring the measured effect to its halfway point. Take `CC(C)[C@H](NC(=O)c1nn(CC2CCCCC2)c2ccccc12)C(N)=O`: the “hERG channel Efficacy (max reduction in Gmax) Gmin” value on hERG (KV11.1) (best fit, APC, 22 °C) is listed as 0.00. Besides, the IC50 on hERG (KV11.1) (setting [1]) came to 51.2 µM. For the same compound, the “CB1 receptor Efficacy Emax” value on human CB1 receptor was 108 % JWH-018. For the same compound, the EC50 at human CB1 receptor (setting [2]) came out at 0.00898 µM. On KV7.1/KCNE1, the “KV7.1/KCNE1 channel Efficacy (max reduction in Gmax) Gmin, marked *” value is listed as 0.72.
For `CC(C)(C)[C@H](NC(=O)c1nn(CC2CCCCC2)c2ccccc12)C(N)=O`, in that order: 0.13, 11.3 µM, 107 % JWH-018, 0.00387 µM and 0.93.
In the case of `COC(=O)[C@@H](NC(=O)c1cn(CCCCF)c2ccccc12)C(C)(C)C` [4F-MDMB-BUTICA], the “hERG channel Efficacy (max reduction in Gmax) Gmin” value at hERG (KV11.1) (best fit, APC, 22 °C) came out at 0.35. Further, the IC50 at hERG (KV11.1) (setting [1]) was 26.2 µM. Further, the “CB1 receptor Efficacy Emax” value on human CB1 receptor (setting [3]) came to 115 % JWH-018. Moreover, the EC50 at human CB1 receptor (setting [4]) came to 0.0167 µM. The “KV7.1/KCNE1 channel Efficacy (max reduction in Gmax) Gmin, marked *” value at KV7.1/KCNE1 was found to be 0.87.
Take `O=C(N/N=C1\C(=O)N(CCCCCF)c2ccccc21)c1ccccc1` [5F-BZO-POXIZID]: the IC50 at hERG (KV11.1) amounted to 0.9 µM. For the same compound, the “effect on Gmax of hERG (in words)” value on hERG (KV11.1) (APC concentration-response, 1.11 to 30 µM) is given as “concentration-dependent inhibitory effects on Gmax; also recorded: prominent inhibitory Gmax effects”. The “hERG channel Efficacy (max reduction in Gmax) Gmin” value at hERG (KV11.1) (best fit, APC, 22 °C) amounted to 0.29. Also, the EC50 at human CB1 receptor (setting [5]) stood at 0.193 µM. On human CB1 receptor (setting [3]), the “CB1 receptor Efficacy Emax” value amounted to 113 % JWH-018. Besides, on KV7.1/KCNE1 (10 µM, both channels by APC), the “Gmax effect on hERG versus KV7.1/KCNE1 (in words)” value is “effects only on hERG”. Further, the “KV7.1/KCNE1 channel Efficacy (max reduction in Gmax) Gmin, marked *” value on KV7.1/KCNE1 came to 0.83.
For `CC(C)(NC(=O)c1nn(CCCCCF)c2ccccc12)c1ccccc1` [5F-Cumyl-PINACA], the values for the IC50 against hERG (KV11.1) and on KV7.1/KCNE1 were 15.5 µM and 43.5 µM, respectively. The “hERG channel Efficacy (max reduction in Gmax) Gmin” value on hERG (KV11.1) (best fit, APC, 22 °C) amounted to 0.00. In addition, the EC50 on human CB1 receptor (setting [5]) was 0.00223 µM and 0.0022 µM. At human CB1 receptor (setting [3]), the “CB1 receptor Efficacy Emax” value was determined as 112 % JWH-018. Besides, the “effect on KV7.1/KCNE1 (in words)” value at KV7.1/KCNE1 (APC) was “well-defined concentration–response relationships for both effects”. Besides, the “KV7.1/KCNE1 channel Efficacy (max reduction in Gmax) Gmin” value on KV7.1/KCNE1 (best fit) came out at 0.13.
For `CC(C)[C@H](NC(=O)c1cn(CC2CCCCC2)c2ccccc12)C(N)=O` [AB-CHMICA], on hERG (KV11.1) (best fit, APC, 22 °C), the “hERG channel Efficacy (max reduction in Gmax) Gmin” value is recorded as 0.64. The IC50 at hERG (KV11.1) (setting [1]) was 8.2 µM; on KV7.1/KCNE1 (setting [6]), 16.2 µM. Moreover, the “CB1 receptor Efficacy Emax” value at human CB1 receptor (setting [3]) was determined as 110 % JWH-018. Moreover, the EC50 at human CB1 receptor (setting [4]) came to 0.0201 µM. For the same compound, the “KV7.1/KCNE1 channel Efficacy (max reduction in Gmax) Gmin” value on KV7.1/KCNE1 (best fit) was found to be 0.46.
As for `CC(C)[C@H](NC(=O)c1nn(Cc2ccc(F)cc2)c2ccccc12)C(N)=O` [AB-FUBINACA], at hERG (KV11.1) (best fit, APC, 22 °C), the “hERG channel Efficacy (max reduction in Gmax) Gmin” value came to 0.00. The IC50 worked out at 30.4 µM at hERG (KV11.1) (setting [1]) and 40.8 µM on KV7.1/KCNE1 (setting [6]). Besides, the “CB1 receptor Efficacy Emax” value on human CB1 receptor (setting [3]) is 108 % JWH-018. Moreover, the EC50 on human CB1 receptor (setting [4]) is 0.00894 µM. In addition, the “KV7.1/KCNE1 channel Efficacy (max reduction in Gmax) Gmin” value at KV7.1/KCNE1 (best fit) came out at 0.15.

The values are drawn from PMC13586173, “Synthetic cannabinoid receptor agonists inhibit the cardiac voltage-gated potassium channel hERG” (Acta Pharmacologica Sinica, 2026).
